Measured values published in ChEMBL document CHEMBL2429749, “Trichinenlides A-T, mexicanolide-type limonoids from Trichilia sinensis” (J Nat Prod, 2013).

Each molecule was assayed on RAW264.7 (assay: Antiinflammatory activity in mouse RAW264.7 cells assessed as inhibition of LPS-induced nitric oxide production preincubated for 2 hrs followed by LPS challenge measured after 24 hrs).
Type: functional, cell-based
With C/C=C/C(=O)O[C@H]1C(C)(C)[C@H](CC(=O)OC)[C@]2(C)C(=O)[C@@]1(O)[C@H]1O[C@@]13C2=CC[C@]1(C)[C@H]3CC(=O)O[C@H]1c1ccoc1 [TRICHINENLIDE B] the IC50 was 2.85 µM.
C/C=C/C(=O)O[C@H]1C(C)(C)[C@H](C(O)C(=O)OC)[C@]2(C)C(=O)[C@@]1(O)[C@H]1O[C@@]13C2=CC[C@]1(C)[C@H]3CC(=O)O[C@H]1c1ccoc1 (some centres undefined) [TRICHINENLIDE C] gave an IC50 of 1.88 µM.
Molecule C/C=C/C(=O)O[C@H]1C(C)(C)[C@H](CC(=O)OC)[C@]2(C)C(=O)[C@@]1(O)[C@H]1O[C@]13[C@@H]1CC(=O)O[C@@H](c4ccoc4)[C@]1(C)CC[C@H]23 has an IC50 of 3.33 µM.
Molecule COc1cc(/C=C/C(=O)CC(=O)/C=C/c2ccc(O)c(OC)c2)ccc1O [CURCUMIN] has an IC50 of 5 µM.
